The results in this text go back to patent publication US20140094493A1, “Novel Ether Linked Compounds and Improved Treatments for Cardiac and Cardiovascular Disease” (priority 2011, published 2014).

Where a name gives a salt, the structure may show the parent alone. Bounds are passed on as bounds.

One data set deals with T1, human beta2-adrenoceptor (Homo sapiens, UniProt P07550).
T1 construct: expressed in transfected cells; host or cells: CHO cells
In words: 3H-CGP12177 whole-cell binding, beta2. As to conditions: 3H-CGP 12177 whole cell binding, CHO cells expressing human beta2-adrenoceptor, logarithmic value; for Kd: read-out: Beta 2 Log KD (converted). How it is done: (§1) Selectivity of ligands for the three beta-adrenoceptors was assessed by whole-cell binding studies using ^3H-CGP12177 in CHO cells expressing the human beta1, beta2 or beta3-adrenoceptors respectively essentially as described by Baker (2005; Br. J Pharmacol: 144, 317-22) Values shown are KD values determined as described by Baker (2005). KD represents the concentration of compound required to occupy 50% of the receptors in cells or tissues.
(§2) The selectivity of a ligand is given by the ratio of beta-1 to beta-2 KD. Accordingly a difference of one in the logarithmic values thereof represents a 10-fold selectivity, a difference of 2 represents 100-fold selectivity and a difference of 3 represents 1000-fold selectivity etc.

The target of the next data set is T2, human beta1-adrenoceptor (Homo sapiens, UniProt P08588).
T2 construct: expressed in transfected cells; host or cells: CHO cells
T2 sequence (P08588 whole entry): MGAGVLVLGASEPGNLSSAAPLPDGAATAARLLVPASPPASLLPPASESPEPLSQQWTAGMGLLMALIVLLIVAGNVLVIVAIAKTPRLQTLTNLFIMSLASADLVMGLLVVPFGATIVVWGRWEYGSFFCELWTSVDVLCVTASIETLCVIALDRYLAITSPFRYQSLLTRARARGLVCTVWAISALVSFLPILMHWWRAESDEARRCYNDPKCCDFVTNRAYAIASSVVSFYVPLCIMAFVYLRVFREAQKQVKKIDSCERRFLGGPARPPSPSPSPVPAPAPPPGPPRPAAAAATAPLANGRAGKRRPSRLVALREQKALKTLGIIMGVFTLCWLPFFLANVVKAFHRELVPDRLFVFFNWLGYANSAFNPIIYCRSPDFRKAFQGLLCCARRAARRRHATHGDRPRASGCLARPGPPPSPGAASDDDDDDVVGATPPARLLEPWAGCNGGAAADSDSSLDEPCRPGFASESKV
In words: 3H-CGP12177 whole-cell binding, beta1. Particulars: for Kd / Beta 1 Log KD: 3H-CGP 12177 whole cell binding, CHO cells expressing human beta1-adrenoceptor, logarithmic value; for Kd: read-out: Beta 1 Log KD (converted); for Beta 1-Beta 2 Log KD (selectivity): difference of Log KD beta1 and beta2, 1 = 10-fold, 2 = 100-fold, 3 = 1000-fold selectivity. How it is done:
as §1, §2

T1 sequence (P07550 whole entry): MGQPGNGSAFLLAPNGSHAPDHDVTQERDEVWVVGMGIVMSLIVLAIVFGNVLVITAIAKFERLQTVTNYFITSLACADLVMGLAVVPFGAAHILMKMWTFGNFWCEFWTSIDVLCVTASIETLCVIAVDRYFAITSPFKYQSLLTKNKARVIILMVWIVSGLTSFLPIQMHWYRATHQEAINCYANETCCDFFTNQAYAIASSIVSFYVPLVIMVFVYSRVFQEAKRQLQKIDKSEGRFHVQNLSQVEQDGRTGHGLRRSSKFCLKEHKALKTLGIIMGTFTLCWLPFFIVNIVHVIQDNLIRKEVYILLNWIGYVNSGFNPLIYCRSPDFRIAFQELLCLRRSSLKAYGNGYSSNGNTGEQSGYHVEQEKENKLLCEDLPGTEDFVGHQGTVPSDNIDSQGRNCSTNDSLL

A word on the melting point: it is the temperature, or range, at which the solid turns liquid. With `NC(=O)c1ccc(OCCNC[C@H](O)COc2ccc(CCCN3CCC(F)(F)CC3)cc2)cc1` (as salt: hydrochloride) [Example 41, (S)-4-(2-(3-(4-(3-(4,4-difluoropiperidin-1-yl)propyl)phenoxy)-2-hydroxypropyl)amino)-ethoxy)benzamide dihydrochloride], the melting point fell in the range of 234 to 235 °C.

Usually Kd stands for the concentration at which binding is half-saturated. On to `COc1ccc(OCCNCC(O)COc2ccc(OCCOC3CCCC3)cc2)cc1` (racemic) [Example 3], for which the Kd on human beta2-adrenoceptor was 759 nM; at human beta1-adrenoceptor it was 7.41 nM. Also, at human beta1-adrenoceptor, the “Beta 1-Beta 2 Log KD (selectivity)” value was found to be 2.01.

Regarding `NC(=O)c1ccc(OCCNCC(O)COc2ccc(OCCOC3CCCC3)cc2)cc1` (stereo not shown) [Example 1], the “Beta 1-Beta 2 Log KD (selectivity)” value on human beta1-adrenoceptor is reported as 2.40.

`CN(C)C(=O)c1ccc(OCCNC[C@H](O)COc2ccc(OCCOC3CCCC3)cc2)cc1` [Example 6]: the melting point is 73 to 75 °C. Moreover, the dissociation constant Kd on human beta2-adrenoceptor was 1050 nM. Besides, at human beta1-adrenoceptor, the equilibrium dissociation constant (Kd) was 11.5 nM and the “Beta 1-Beta 2 Log KD (selectivity)” value was found to be 1.96.

Take `NC(=O)c1ccc(OCCNC[C@H](O)COc2ccc(CCCOCC3CC3)cc2)cc1` [Example 8]: the melting point was 132 to 135 °C. At human beta2-adrenoceptor, the Kd was 1320 nM. In addition, at human beta1-adrenoceptor, the dissociation constant (Kd) was 2.88 nM and the “Beta 1-Beta 2 Log KD (selectivity)” value is on record as 2.66.

Turning to `NC(=O)c1ccc(OCCNC[C@H](O)COc2ccc(CCCOC3CCCC3)cc2)cc1` [Example 9], the melting point was 120 to 122 °C. Further, the dissociation constant (Kd) on human beta2-adrenoceptor was 355 nM. For the same compound, on human beta1-adrenoceptor, the Kd was 0.912 nM and the “Beta 1-Beta 2 Log KD (selectivity)” value worked out at 2.59.

In the case of `NC(=O)c1ccc(OCCNC[C@H](O)COc2ccc3c(c2)OC[C@@H](COCC2CC2)O3)cc1` [Example 11], the melting point was in the range of 136 to 138 °C. For the same compound, the dissociation constant (Kd) on human beta2-adrenoceptor is 10200 nM. Further, at human beta1-adrenoceptor, the Kd was 23.4 nM and the “Beta 1-Beta 2 Log KD (selectivity)” value amounted to 2.64.

`O[C@@H](CNCCOc1ccc2ncccc2c1)COc1ccc(CCCOCC2CC2)cc1` [Example 12]: the melting point lay in the range of 128 to 130 °C. In addition, the dissociation constant (Kd) on human beta2-adrenoceptor was 138 nM. In addition, at human beta1-adrenoceptor, the Kd is 0.832 nM and the “Beta 1-Beta 2 Log KD (selectivity)” value turned out to be 2.22.

On to `CC(=O)Nc1ccc(OCCNC[C@H](O)COc2ccc(CCCOCC3CC3)cc2)cc1` [Example 13], for which the “Beta 2 Log KD” value at human beta2-adrenoceptor was −6.53. In addition, at human beta1-adrenoceptor, the “Beta 1 Log KD” value is recorded as −8.83 and the “Beta 1-Beta 2 Log KD (selectivity)” value was determined as 2.3.

As for `O[C@@H](CNCCOc1ccc2ncccc2c1)COc1ccc2c(c1)OC[C@@H](COCC1CC1)O2` [Example 14], the equilibrium dissociation constant (Kd) on human beta2-adrenoceptor is 1260 nM; at human beta1-adrenoceptor it was 4.17 nM. Moreover, at human beta1-adrenoceptor, the “Beta 1-Beta 2 Log KD (selectivity)” value is listed as 2.48.

As to `CC(=O)Nc1ccc(OCCNC[C@H](O)COc2ccc3c(c2)OC[C@@H](COCC2CC2)O3)cc1` [Example 15], the melting point was in the range of 123 to 125 °C. The Kd at human beta2-adrenoceptor was 4370 nM. In addition, on human beta1-adrenoceptor, the dissociation constant (Kd) is 7.59 nM and the “Beta 1-Beta 2 Log KD (selectivity)” value amounted to 2.76.

With `NC(=O)c1ccc(OCCNC[C@H](O)COc2ccc3c(c2)OC[C@@H](COC2CCCC2)O3)cc1` [Example 16], the melting point is 134 to 136 °C. Further, the dissociation constant Kd on human beta2-adrenoceptor is 5010 nM. Also, on human beta1-adrenoceptor, the Kd is 6.17 nM and the “Beta 1-Beta 2 Log KD (selectivity)” value worked out at 2.91.

As for `O=C1NCc2cc(OCCNC[C@H](O)COc3ccc4c(c3)OC[C@@H](COCC3CC3)O4)ccc21` [Example 18], the values for the Kd on human beta2-adrenoceptor and on human beta1-adrenoceptor were 4680 nM and 4.57 nM, respectively. Besides, the “Beta 1-Beta 2 Log KD (selectivity)” value at human beta1-adrenoceptor came out at 3.01.

`NC(=O)c1ccc(OCCNC[C@H](O)COc2ccc(CCOCC3CC3)cc2)cc1` [Example 20]: the “Beta 2 Log KD” value on human beta2-adrenoceptor was −6.71. Also, at human beta1-adrenoceptor, the “Beta 1 Log KD” value is −8.99 and the “Beta 1-Beta 2 Log KD (selectivity)” value was 2.28.

Turning to `O[C@@H](CNCCOc1ccc2nccnc2c1)COc1ccc(CCCOCC2CC2)cc1` [Example 21], the Kd at human beta2-adrenoceptor is 427 nM; at human beta1-adrenoceptor it was 2.75 nM. In addition, the “Beta 1-Beta 2 Log KD (selectivity)” value at human beta1-adrenoceptor is reported as 2.19.

Consider `O=c1[nH]c2ccc(OCCNC[C@H](O)COc3ccc(CCCOCC4CC4)cc3)cc2[nH]1` [Example 22], for which the melting point is 183 to 185 °C. The Kd on human beta2-adrenoceptor was 1410 nM. For the same compound, on human beta1-adrenoceptor, the dissociation constant Kd was 8.32 nM and the “Beta 1-Beta 2 Log KD (selectivity)” value amounted to 2.23.

For `O=C1NCc2cc(OCCNC[C@H](O)COc3ccc4c(c3)OC[C@@H](COc3ccc(F)cc3)O4)ccc21` [Example 25], at human beta2-adrenoceptor, the Kd is 347 nM. Moreover, on human beta1-adrenoceptor, the Kd was 0.794 nM and the “Beta 1-Beta 2 Log KD (selectivity)” value is given as 2.64.

As to `O=C1NCc2cc(OCCNC[C@H](O)COc3ccc4c(c3)OC[C@H](COc3ccc(F)cc3)O4)ccc21` [Example 26], the melting point fell in the range of 161 to 164 °C. On human beta2-adrenoceptor, the Kd is 2510 nM. Further, on human beta1-adrenoceptor, the Kd was 4.17 nM and the “Beta 1-Beta 2 Log KD (selectivity)” value came out at 2.78.

For `NC(=O)c1ccc(OCCNC[C@H](O)COc2ccc3cc(COCC4CC4)ccc3c2)cc1` [Example 28], the melting point lay in the range of 148 to 150 °C. In addition, on human beta2-adrenoceptor, the dissociation constant Kd is more than 100000 nM. On human beta1-adrenoceptor, the Kd is 117 nM and the “Beta 1-Beta 2 Log KD (selectivity)” value is less than 2.93.

`O=C1NCc2cc(OCCNC[C@H](O)COc3ccc4cc(OCC5CC5)ccc4c3)ccc21` [Example 29] had a melting point of 194 to 196 °C. Also, the dissociation constant (Kd) at human beta2-adrenoceptor is more than 100000 nM. In addition, at human beta1-adrenoceptor, the dissociation constant Kd is 79.4 nM and the “Beta 1-Beta 2 Log KD (selectivity)” value is reported as less than 3.10.

Take `O=C1NCc2cc(OCCNC[C@H](O)COc3ccc4c(c3)OC[C@@H](COc3ccncc3)O4)ccc21` [Example 30]: the melting point fell in the range of 192 to 194 °C. Besides, the Kd at human beta2-adrenoceptor is 72400 nM. Also, at human beta1-adrenoceptor, the dissociation constant (Kd) was 57.5 nM and the “Beta 1-Beta 2 Log KD (selectivity)” value turned out to be 3.10.

Consider `O=C1NCc2cc(OCCNC[C@H](O)COc3ccc4c(c3)OC[C@@H](COc3cccc(F)c3)O4)ccc21` [Example 33], for which the Kd at human beta2-adrenoceptor was 2000 nM. For the same compound, at human beta1-adrenoceptor, the dissociation constant (Kd) is 2.82 nM and the “Beta 1-Beta 2 Log KD (selectivity)” value is given as 2.85.

Compound `O=C1NCc2cc(OCCNC[C@H](O)COc3ccc4c(c3)OC[C@@H](COc3ccc(OC(F)(F)F)cc3)O4)ccc21` [Example 34] had a melting point of 188 to 189 °C. The Kd at human beta2-adrenoceptor was 7760 nM. On human beta1-adrenoceptor, the dissociation constant Kd was 3.39 nM and the “Beta 1-Beta 2 Log KD (selectivity)” value is on record as 3.37.

Consider `O=C1NCc2cc(OCCNC[C@H](O)COc3ccc4c(c3)OC[C@@H](COc3ccccc3F)O4)ccc21` [Example 35], for which, on human beta2-adrenoceptor, the “Beta 2 Log KD” value was −4.98. In addition, on human beta1-adrenoceptor, the “Beta 1 Log KD” value was −8.68 and the “Beta 1-Beta 2 Log KD (selectivity)” value was 3.70.

The compound `COc1c(F)cc(OC[C@@H]2COc3cc(OC[C@@H](O)CNCCOc4ccc5c(c4)CNC5=O)ccc3O2)cc1F` [Example 37] returned a melting point of 182 to 184 °C. In addition, the Kd on human beta2-adrenoceptor was 6310 nM. Moreover, at human beta1-adrenoceptor, the dissociation constant (Kd) was 2.69 nM and the “Beta 1-Beta 2 Log KD (selectivity)” value was found to be 3.37.

For `O=C1NCc2cc(OCCNC[C@H](O)COc3ccc4c(c3)OC[C@@H](COc3c(F)cccc3F)O4)ccc21` [Example 38], on human beta2-adrenoceptor, the “Beta 2 Log KD” value is given as −5.20. Besides, on human beta1-adrenoceptor, the “Beta 1 Log KD” value was −8.54 and the “Beta 1-Beta 2 Log KD (selectivity)” value is 3.34.

`Cc1ccccc1OC[C@@H]1COc2cc(OC[C@@H](O)CNCCOc3ccc4c(c3)CNC4=O)ccc2O1` [Example 39] gave a melting point of 146 to 148 °C. Moreover, on human beta2-adrenoceptor, the Kd is 871 nM. For the same compound, on human beta1-adrenoceptor, the Kd was 1.07 nM and the “Beta 1-Beta 2 Log KD (selectivity)” value came to 2.91.

Compound `COc1ccc(OCC2COc3cc(OCC(O)CNCCOc4ccc5c(c4)CNC5=O)ccc3O2)c(F)c1` (stereo not shown) [Example 40] returned a melting point of 145 to 147 °C. The Kd on human beta2-adrenoceptor is 1620 nM. For the same compound, on human beta1-adrenoceptor, the dissociation constant Kd is 3.24 nM and the “Beta 1-Beta 2 Log KD (selectivity)” value amounted to 2.70.

On to `NC(=O)c1ccc(OCCNC[C@H](O)COc2ccc(CCCN3CCC(F)(F)CC3)cc2)cc1` [Example 41, (S)-4-(2-(3-(4-(3-(4,4-difluoropiperidin-1-yl)propyl)phenoxy)-2-hydroxypropyl)amino)-ethoxy)benzamide dihydrochloride], for which the Kd at human beta2-adrenoceptor is 1350 nM. Besides, on human beta1-adrenoceptor, the Kd was 1.82 nM and the “Beta 1-Beta 2 Log KD (selectivity)” value was found to be 2.87.

In turn, `O=C1NCc2cc(OCCNC[C@H](O)COc3ccc(CCCN4CCC(F)(F)CC4)cc3)ccc21` [Example 42] had a melting point of 132 to 133 °C. The Kd at human beta2-adrenoceptor was 407 nM. At human beta1-adrenoceptor, the Kd was 1.95 nM and the “Beta 1-Beta 2 Log KD (selectivity)” value is given as 2.32.

Consider `O=C1NCc2cc(OCCNC[C@H](O)COc3ccc(CCCOC4CC4)cc3)ccc21` [Example 45], for which the “Beta 2 Log KD” value at human beta2-adrenoceptor is listed as −6.52. Further, at human beta1-adrenoceptor, the “Beta 1 Log KD” value is −9.17 and the “Beta 1-Beta 2 Log KD (selectivity)” value worked out at 2.65.

As to `NC(=O)c1ccc(OCCNC[C@H](O)COc2ccc(CCCOC3CC3)cc2)cc1` [Example 46], the “Beta 2 Log KD” value at human beta2-adrenoceptor is listed as −6.10. Also, on human beta1-adrenoceptor, the “Beta 1 Log KD” value was −8.67 and the “Beta 1-Beta 2 Log KD (selectivity)” value was 2.57.
